# Active and inactive are the calls of the source.
# Experiments:
# [1] = molecular target: Dual specificity tyrosine-phosphorylation-regulated kinase 1A (Rattus norvegicus, UniProt Q63470); assay type: biochemical, Homo sapiens
# cells [2] = assay type: functional, cell-based
# cells [3] = assay type: functional, cell-based; remark: listed apart in the source
# [4] = molecular target: T1, Corticotropin-releasing factor receptor 2/Corticotropin-releasing factor-binding protein (Homo sapiens, UniProt P24387+Q13324); test: Dose Response confirmation of uHTS hits for small molecule antagonists of the CRF-binding protein and CRF-R2 receptor complex.; assay type: functional; settings: read-out: IC50_Mean
# T1 sequence (Q13324 whole entry): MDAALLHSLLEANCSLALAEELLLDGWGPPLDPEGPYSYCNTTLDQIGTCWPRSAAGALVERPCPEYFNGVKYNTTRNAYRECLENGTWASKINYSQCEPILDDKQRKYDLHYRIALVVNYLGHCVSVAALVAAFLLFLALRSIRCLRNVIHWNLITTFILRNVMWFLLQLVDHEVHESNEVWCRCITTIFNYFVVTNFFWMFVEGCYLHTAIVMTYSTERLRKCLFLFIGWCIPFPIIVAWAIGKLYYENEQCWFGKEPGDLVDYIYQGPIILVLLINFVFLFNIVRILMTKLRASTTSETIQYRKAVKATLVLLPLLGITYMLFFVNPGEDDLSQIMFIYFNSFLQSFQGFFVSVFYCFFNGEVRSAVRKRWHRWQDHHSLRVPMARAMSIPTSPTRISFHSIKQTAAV
# T1 sequence (P24387 whole entry): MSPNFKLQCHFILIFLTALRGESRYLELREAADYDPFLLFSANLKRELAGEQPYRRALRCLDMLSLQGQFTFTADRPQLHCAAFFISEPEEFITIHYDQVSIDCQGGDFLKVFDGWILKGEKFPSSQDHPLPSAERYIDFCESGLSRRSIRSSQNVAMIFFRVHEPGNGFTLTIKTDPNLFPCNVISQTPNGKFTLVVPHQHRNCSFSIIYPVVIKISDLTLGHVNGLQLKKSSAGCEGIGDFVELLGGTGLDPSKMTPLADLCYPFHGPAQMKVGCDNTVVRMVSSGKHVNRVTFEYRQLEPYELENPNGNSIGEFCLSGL
# [5] = molecular target: T1, Corticotropin-releasing factor receptor 2/Corticotropin-releasing factor-binding protein; test: activators of CRF receptor 2 with binding protein – uHTS hits, confirmation (AID 602473); assay type: functional; settings: read-out: EC50_Mean
# [6] = molecular target: T2, Calpain-2 catalytic subunit (Sus scrofa, UniProt P43367); test: pig calpain II inhibitor potency, dose response, biochemical, fluorogenic peptide substrate (AID 1420); assay type: functional
# T2 sequence (P43367 whole entry): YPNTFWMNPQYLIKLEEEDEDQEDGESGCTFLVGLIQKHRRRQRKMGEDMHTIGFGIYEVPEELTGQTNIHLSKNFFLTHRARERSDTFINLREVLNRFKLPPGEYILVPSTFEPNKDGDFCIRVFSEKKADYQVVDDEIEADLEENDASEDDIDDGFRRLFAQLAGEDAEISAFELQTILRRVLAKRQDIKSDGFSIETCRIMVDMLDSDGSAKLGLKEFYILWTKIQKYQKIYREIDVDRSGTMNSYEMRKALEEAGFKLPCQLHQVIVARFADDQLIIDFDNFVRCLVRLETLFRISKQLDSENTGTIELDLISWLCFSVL
# [7] = inhibitors of PGC1a acetylation in cells, dose response, cell-based, cherry-picked samples (AID 720514); assay type: functional;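 also: potency may reflect raised or lowered acetylation signal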
# [8] = inhibitors of HIV Env-driven cell fusion, dose response, cherry-pick (AID 652057); assay type: functional, cell-based
# [9] = ZM109 Env clade C HIV-1 fusion inhibitors, dose response, HeLa effector, CEM target cells, luciferase, cherry-pick (AID 652058); assay type: functional, cell-based
# [10] = off-target signal loss in HeLa-CEM21 co-culture – HeLa F-luc CTL cells, cherry-picked, counter-screen for HIV-1 Env fusion inhibitor project, dose response (AID 652040); assay type: functional, cell-based;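 also: potency for signal decrease marking cytotoxic or nonspecific inhibition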
# [11] = Luminescence Cell-Based Dose Confirmation HTS to Identify Activators of 5'UTR Stem-Loop Driven Alpha-Synuclein mRNA Translation in H4 Neuroglioblastoma Cells. [Related pubchem assays: 1829 (Project Summary), 1814 (Primary HTS)]; assay type: functional
# [12] = Luminescence Cell-Based Dose Response HTS to Identify Activators of Luciferase Translation or Activity in H4 […] Cells. [Related pubchem assays: 1829 (Project Summary), 1814 (Primary HTS)]; assay type: functional
# H4 = test: Luminescence Cell-Based Dose Response HTS to Identify Activators of 5'UTR Stem-Loop Driven Prion Protein mRNA Translation in H4 Neuroglioblastoma Cells. [Related pubchem assays: 1829 (Project Summary), 1814 (Primary HTS)]; assay type: functional; settings: Homo sapiens
# [13] = inhibitors of intracellular T. cruzi replication, confirmation, NIH3T3 host cells, beta-gal luminescence (AID 2044); assay type: functional, cell-based;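 also: intracellular parasites grown in NIH/3T3 mouse fibroblasts as host cells; luminescent beta-galactosidase reporter signal from transgenic T. cruzi replicating inside host cells; inhibitors lower the luminescence signal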
# [14] = cytotoxicity toward NIH3T3 fibroblasts, dose response, counter-screen, cell-based, ATP luminescence, mouse fibroblasts (AID 2010); assay type: functional;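 also: cells exposed to compound for about 90 hours before reading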
# Paired box protein Pax-8 = Paired box protein Pax-8 (Homo sapiens, UniProt Q06710); test: inhibitors of PAX8-driven TPO luciferase reporter, dose response, RMG-I cells, cherry-pick (AID 687027); assay type: functional, cell-based;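 also: luciferase reporter driven by Pax8 target thyroperoxidase promoter measured by SteadyGlo luminescence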
# Chain of Paired box protein Pax-8 (Q06710 whole entry, the tested form may be a part): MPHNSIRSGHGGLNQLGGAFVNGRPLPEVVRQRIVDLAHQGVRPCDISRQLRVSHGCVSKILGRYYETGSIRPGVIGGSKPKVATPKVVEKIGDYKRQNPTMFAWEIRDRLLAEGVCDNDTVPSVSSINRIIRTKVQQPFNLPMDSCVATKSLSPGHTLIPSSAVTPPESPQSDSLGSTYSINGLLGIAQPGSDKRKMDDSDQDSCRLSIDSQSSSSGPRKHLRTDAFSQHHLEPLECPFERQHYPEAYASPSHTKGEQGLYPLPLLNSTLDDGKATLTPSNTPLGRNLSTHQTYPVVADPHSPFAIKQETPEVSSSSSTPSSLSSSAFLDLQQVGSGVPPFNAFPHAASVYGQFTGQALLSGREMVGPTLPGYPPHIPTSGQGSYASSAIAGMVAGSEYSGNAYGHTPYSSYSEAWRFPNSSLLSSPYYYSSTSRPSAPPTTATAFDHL
# [15] = molecular target: T3, Carboxy-terminal domain RNA polymerase II polypeptide A small phosphatase 1 (Homo sapiens, UniProt Q9GZU7); test: inhibitors of CTDSP1, concentration-response testing, biochemical assay, absorbance-based, actives from ultra-high-throughput screening (AID 540297); assay type: functional
# T3 sequence (Q9GZU7 whole entry): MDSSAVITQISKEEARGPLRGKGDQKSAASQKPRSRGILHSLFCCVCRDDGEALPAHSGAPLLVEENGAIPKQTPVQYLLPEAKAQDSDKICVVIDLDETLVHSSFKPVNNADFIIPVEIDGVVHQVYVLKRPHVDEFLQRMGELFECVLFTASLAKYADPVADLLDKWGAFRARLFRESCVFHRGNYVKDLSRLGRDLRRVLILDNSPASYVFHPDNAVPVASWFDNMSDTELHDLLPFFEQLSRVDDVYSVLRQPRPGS
# Cytochrome P450 2C19 = Cytochrome P450 2C19 (Homo sapiens, UniProt P33261); test: Cytochrome panel assay with activity outcomes. Panel member name: p450-cyp2c19 Compounds with AC50 equal or less than 10 uM are considered active; assay type: functional; settings: read-out: AC50
# Chain of Cytochrome P450 2C19 (P33261 whole entry): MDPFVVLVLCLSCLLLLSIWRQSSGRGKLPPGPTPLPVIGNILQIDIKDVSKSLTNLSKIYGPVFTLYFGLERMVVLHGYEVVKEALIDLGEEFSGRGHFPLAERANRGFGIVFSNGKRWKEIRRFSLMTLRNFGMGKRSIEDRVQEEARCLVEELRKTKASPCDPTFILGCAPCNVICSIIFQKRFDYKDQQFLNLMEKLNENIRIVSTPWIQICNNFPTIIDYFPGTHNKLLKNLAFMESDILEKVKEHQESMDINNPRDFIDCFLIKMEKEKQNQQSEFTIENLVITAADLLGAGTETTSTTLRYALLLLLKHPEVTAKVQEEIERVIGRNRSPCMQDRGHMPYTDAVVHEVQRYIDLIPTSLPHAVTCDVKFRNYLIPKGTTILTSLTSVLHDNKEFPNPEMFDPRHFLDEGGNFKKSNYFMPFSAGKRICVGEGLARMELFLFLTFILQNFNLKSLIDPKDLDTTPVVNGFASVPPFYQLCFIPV
# [16] = molecular target: T4, Long-chain-fatty-acid--AMP ligase FadD28 (Mycobacterium tuberculosis, UniProt P9WQ59); test: Fluorescence polarization aasay to screen for inhibitors that compete for the binding of FadD28 to a bisubstrate Measured in Biochemical System Using Plate Reader - 2147-01_Inhibitor_Dose_CherryPick_Activity.; assay type: functional, Mycobacterium tuberculosis H37Rv
# T4 sequence (P9WQ59 whole entry): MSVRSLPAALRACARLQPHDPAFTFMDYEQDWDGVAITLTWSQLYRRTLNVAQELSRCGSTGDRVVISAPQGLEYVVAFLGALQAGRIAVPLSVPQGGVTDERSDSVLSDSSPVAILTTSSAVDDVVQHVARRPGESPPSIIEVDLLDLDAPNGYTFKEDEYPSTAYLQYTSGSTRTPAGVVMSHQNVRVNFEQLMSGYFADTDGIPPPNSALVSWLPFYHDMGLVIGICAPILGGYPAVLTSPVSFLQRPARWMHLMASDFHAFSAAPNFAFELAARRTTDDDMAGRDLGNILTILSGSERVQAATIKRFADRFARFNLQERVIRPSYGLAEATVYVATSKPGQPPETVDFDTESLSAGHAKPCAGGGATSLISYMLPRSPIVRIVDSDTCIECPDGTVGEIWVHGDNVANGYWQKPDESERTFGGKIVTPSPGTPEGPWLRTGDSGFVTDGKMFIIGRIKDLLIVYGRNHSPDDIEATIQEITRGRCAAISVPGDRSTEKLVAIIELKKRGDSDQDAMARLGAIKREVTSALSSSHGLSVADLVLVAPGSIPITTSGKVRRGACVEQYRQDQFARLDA
# Leucine aminopeptidase = molecular target: T5, Leucine aminopeptidase (Plasmodium falciparum 3D7, UniProt Q8IL11); test: P. falciparum M17LAP inhibitors, primary screen, biochemical, fluorogenic H-Leu-NHMec substrate, 1536-well (AID 1619); assay type: functional
# T5 sequence (Q8IL11 whole entry): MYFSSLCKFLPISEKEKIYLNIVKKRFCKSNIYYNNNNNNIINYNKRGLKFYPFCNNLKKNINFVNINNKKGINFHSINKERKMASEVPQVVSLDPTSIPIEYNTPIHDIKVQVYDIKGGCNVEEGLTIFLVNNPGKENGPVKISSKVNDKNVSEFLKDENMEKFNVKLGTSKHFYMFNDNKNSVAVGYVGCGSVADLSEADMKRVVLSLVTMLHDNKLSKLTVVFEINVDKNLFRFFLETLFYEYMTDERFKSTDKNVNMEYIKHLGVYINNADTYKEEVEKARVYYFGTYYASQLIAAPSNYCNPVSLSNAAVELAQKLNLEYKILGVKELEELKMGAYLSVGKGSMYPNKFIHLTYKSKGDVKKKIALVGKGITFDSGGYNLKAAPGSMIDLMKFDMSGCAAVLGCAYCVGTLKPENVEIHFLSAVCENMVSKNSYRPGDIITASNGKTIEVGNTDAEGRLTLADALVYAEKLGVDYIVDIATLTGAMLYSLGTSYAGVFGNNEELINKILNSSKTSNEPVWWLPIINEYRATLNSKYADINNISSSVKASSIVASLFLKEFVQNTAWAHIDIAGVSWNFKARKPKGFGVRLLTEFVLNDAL
# Nonstructural protein 1 = Nonstructural protein 1 (Influenza A virus, UniProt Q194T2); assay type: functional, Influenza A virus (A/California/07/2009(H1N1))
# Chain of Nonstructural protein 1 (Q194T2 whole entry): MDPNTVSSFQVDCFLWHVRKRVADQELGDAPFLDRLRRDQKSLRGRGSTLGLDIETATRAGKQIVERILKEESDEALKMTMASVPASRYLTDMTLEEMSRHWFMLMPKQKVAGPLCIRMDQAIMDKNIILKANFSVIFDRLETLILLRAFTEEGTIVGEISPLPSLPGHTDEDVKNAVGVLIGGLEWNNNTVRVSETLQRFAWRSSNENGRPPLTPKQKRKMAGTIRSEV
# [17] = NIH:OVCAR-3 ovarian cancer cell cytotoxicity, dose response, PAX8 inhibitor project, plate reader, dry powder samples (AID 743044); assay type: functional, cell-based
# [18] = cytotoxicity in OVCAR8 ovarian cancer cells, dose response, PAX8 project, cell-based, plate reader, dry powder samples (AID 743197); assay type: functional; settings: OVCAR-8
# [19] = A549 cell cytotoxicity, dose response, cytotoxicity control, plate reader, cherry-pick, antagonist series (AID 743412); assay type: functional, cell-based
compound,measurement,setting,value
CCCC[n+]1ccc(-c2nc3cc([N+](=O)[O-])ccc3[nH]2)cc1,AC50,[1],2.24 µM (active)
COc1ccc(/C=C/C(=O)NCCSCc2ccco2)cc1OC,EC50,cells [2],> 350 µM (not active)
same,EC50,cells [3],> 350 µM (not active)
same,IC50,[4],> 47.1 µM (inactive)
same,EC50,[5],> 53 µM (inactive)
FC(F)Oc1ccc(NC(S)=Nc2ccc3c[nH]nc3c2)cc1,EC50,cells [2],> 350 µM (not active)
same,EC50,cells [3],> 350 µM (not active)
Cc1ccc(-c2cc(C(=O)N3CCCCCC3)no2)cc1,EC50,cells [2],> 350 µM (not active)
same,EC50,cells [3],10.2 µM (active)
O=C(COn1nnc2ccc(Cl)cc21)NC12CC3CC(CC(C3)C1)C2,IC50,[6],> 50 µM (not active)
same,AC50,[7],31.5 µM (active)
CCOC(=O)c1ccc(NC2c3ncccc3C(=O)N2Cc2ccc(F)cc2)cc1 (centres undefined),AC50,[8],3.06 µM (active)
same,AC50,[9],0.521 µM (active)
same,AC50,[10],2.84 µM (active)
N#CC1(NC(=O)Cn2ncc(Cl)c(Cl)c2=O)CCCCC1,EC50,[11],> 120 µM (not active)
same,EC50,[12],> 60 µM (not active)
same,EC50,H4,> 120 µM (not active)
same,EC50,[13],2.22 µM (active)
same,EC50,[14],3.27 µM (active)
same,AC50,Paired box protein Pax-8,3.01 µM (active)
same,AC50,[7],10.8 µM (active)
Cc1ccc(-c2cc(C(=O)Nc3cccnc3)c3ccccc3n2)o1,IC50,[15],9.9 µM (active)
C=CCOc1ccc(/C=C2\SC(Nc3cccnc3)=NC2=O)cc1,EC50,cells [2],> 350 µM (not active)
same,EC50,cells [3],> 350 µM (not active)
same,AC50,[1],2.93 µM (active)
O=C(Nc1cccc(-c2nc3cccnc3s2)c1)c1cccnc1Cl,AC50,[1],0.651 µM (active)
Cc1cccc(NC(=O)Cn2c(=O)n3nc(CCn4nc(C)cc4C)nc3c3ccccc32)c1,AC50,Cytochrome P450 2C19,0.0355 µM (inconclusive)
same,AC50,[16],44.4 µM (active)
O=C(O)c1ccc(CSc2nc3ccc(NC(=O)c4ccccc4C(=O)O)cc3s2)cc1,IC50,[15],6.66 µM (active)
CCCC1CCC(=C(C#N)C(N)=O)CC1 (centres undefined),EC50,cells [2],> 350 µM (not active)
same,EC50,cells [3],41.6 µM (active)
Nc1nc(-c2cccs2)c(-c2cccs2)s1,AC50,[16],> 100 µM (inactive)
Cc1cc(C(=O)O)ccc1-c1ccc(/C=C2\NC(=O)N(Cc3ccccc3Cl)C2=O)o1,IC50,Leucine aminopeptidase,13.6 µM (active)
same,IC50,[15],7.71 µM (active)
O=C(CSc1ccc(-c2ccccn2)nn1)c1ccccc1,EC50,[11],> 120 µM (not active)
same,EC50,[12],8.47 µM (active)
same,EC50,H4,56.6 µM (active)
same,IC50,Nonstructural protein 1,10.9 µM (active)
NC(=O)COc1ccc(/C=N\NC(=O)c2ccc(-c3ccccc3)cc2)cc1,IC50,[15],6.66 µM (active)
Clc1ccc2[nH]c(COc3ccccc3)nc2c1,AC50,[1],6.23 µM (active)
C[C@H]1CCCCO[C@@H](CN(C)Cc2ccc(C(F)(F)F)cc2)[C@@H](C)CN([C@@H](C)CO)C(=O)c2cc(NC(=O)Nc3ccc(F)cc3)ccc2O1,AC50,Paired box protein Pax-8,5.26 µM (active)
same,AC50,[17],66.3 µM (active)
same,AC50,[18],56 µM (active)
C[C@@H]1CN([C@@H](C)CO)C(=O)Cc2cc(NC(=O)Nc3ccc(C(F)(F)F)cc3)ccc2O[C@H]1CN(C)C(=O)NC1CCCCC1,AC50,Paired box protein Pax-8,8.4 µM (active)
same,AC50,[17],54 µM (active)
CCC(=O)N(C)C[C@H]1Oc2cc(C#CCC(C)C)ccc2S(=O)(=O)N([C@H](C)CO)C[C@@H]1C,AC50,[19],32.1 µM (active)
O=C(N/N=C/c1ccccc1O)C(=O)Nc1ccccn1,IC50,Nonstructural protein 1,10.8 µM (active)
COc1ccccc1OCC(=O)N/N=C/c1c(O)ccc2ccccc12,EC50,cells [2],10.8 µM (active)
same,EC50,cells [3],> 350 µM (not active)
